Data on 100 compounds can be found in PubChem BioAssay AID1648 (Sanford-Burnham Center for Chemical Genomics, 2009).

Activity calls are given as the source filed them. How the calls were made is not given here.

By Kd is commonly meant the constant that tells how readily two partners part at equilibrium.

The target of this test is Serine/threonine-protein kinase mTOR (Homo sapiens) (UniProt P42345). In words: mTOR FRB domain ligand binding – biophysical, NMR (AID 1648). Conditions: NMR binding to FRB domain, chemical shift.
Sequence of Serine/threonine-protein kinase mTOR (Homo sapiens) (P42345 2015-2114): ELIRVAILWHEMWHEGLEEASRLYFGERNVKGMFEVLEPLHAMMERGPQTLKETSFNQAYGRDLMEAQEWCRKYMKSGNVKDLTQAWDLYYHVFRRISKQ

As for `COc1cccc(OC)c1C(=O)N1CCOCC1`, the Kd was > 4 mM (inactive).

With `O=C(O)C(CO)c1ccccc1` (stereo not given), the Kd is > 4 mM (inactive).

Turning to `NCCc1ccc(S(N)(=O)=O)cc1`, the Kd is > 4 mM (inactive).

As for `Nc1ncccc1OCc1ccccc1`, the Kd was > 4 mM (inactive).

Take `O=C(O)CSc1nnc(-c2cccs2)o1`: the Kd is > 4 mM (inactive).

Take `O=C(O)c1ccc(-c2cnco2)cc1`: the Kd was > 4 mM (inactive).

As to `CC(=O)O[C@]1(C)CC[C@@]23CC1C(C)(C)[C@@H]2CC[C@H]3C`, the Kd is > 4 mM (inactive).

As to `COCC(=O)N1CCCc2ccccc21`, the Kd was > 4 mM (inactive).

In the case of `c1ccc(Cc2nnc(-c3ccccc3)o2)cc1`, the Kd is > 4 mM (inactive).

For the compound `Cc1cc(C(=O)Nc2ccc3c(c2)OCO3)cs1`, the Kd was > 4 mM (inactive).

Consider `COc1cc(S(=O)(=O)Nc2cccnc2)ccc1F`, for which the Kd was > 4 mM (inactive).

Consider `CC(=O)N1CC2(C)CN(C(C)=O)CC(C)(C1)C2O` (stereo not given), for which the Kd is > 4 mM (inactive).

For the compound `O=C(NCc1n[nH]c(=O)c2ccccc12)C1CC1`, the Kd was > 4 mM (inactive).

With `Nc1ccc(N2CCOCC2)cc1`, the Kd is > 4 mM (inactive).

With `COC(=O)[C@@H]1OC(=O)C2OC23[C@@]1(C)CCC1[C@]2(C)C(C[C@H](O)[C@]13C)C(C)(C)[C@H](OC(C)=O)C[C@@H]2OC(C)=O` (stereo not given in full), the Kd was > 4 mM (inactive).

As for `COc1ccc(Cc2nnc3c4cnn(C)c4ncn23)cc1`, the Kd is > 4 mM (inactive).

With `Nc1cccnc1N1CCOCC1`, the Kd was > 4 mM (inactive).

Consider `COc1c(CC=C(C)C)c2c(c3oc(=O)c(-c4ccc(O)cc4)c(O)c13)C=CC(C)(C)O2`, for which the Kd was > 4 mM (inactive).

With `O=S1(=O)CCC(NC(=S)N2CCOCC2)C1` (stereo not given), the Kd is > 4 mM (inactive).

For the compound `Cn1c(=O)n(CC(=O)N2CCOCC2)c2ccccc21`, the Kd is > 4 mM (inactive).

Consider `COc1ccc2[nH]c(O)c(NC(C)=O)c2c1`, for which the Kd was > 4 mM (inactive).

`OCc1ccncc1`: the Kd is > 4 mM (inactive).

Consider `N/N=C1\CCCc2c1no[n+]2[O-]`, for which the Kd was > 4 mM (inactive).

Consider `O=C(O)c1ccccc1C(=O)Nc1ccccc1`, for which the Kd was > 4 mM (inactive).

Regarding `CN(C)/C=N/S(=O)(=O)c1ccccc1`, the Kd is > 4 mM (inactive).

On to `CC(C)=CCC1=C(O)c2ccccc2C(=O)C1=O`, for which the Kd was > 4 mM (inactive).

For the compound `O=C1NC(=O)C(=Cc2ccccc2)C(=O)N1`, the Kd was > 4 mM (inactive).

Turning to `Cc1oc(S(=O)(=O)N2CCCCC2)cc1C(=O)O`, the Kd is > 4 mM (inactive).

On to `Cc1ccc2c(c1)=C(c1sc(N)nc1O)C(=O)N=2`, for which the Kd was > 4 mM (inactive).

With `O=C1NC(=O)/C(=C\c2ccco2)S1`, the Kd is > 4 mM (inactive).

With `Nc1ncnc(NCCO)c1[N+](=O)[O-]`, the Kd is > 4 mM (inactive).

As to `O=C(CNC(=O)c1ccc(F)cc1)NC1=NCCS1`, the Kd was > 4 mM (inactive).

On to `O=c1cc(O)n(-c2ccc(F)cc2)c(=S)[nH]1`, for which the Kd is > 4 mM (inactive).

As to `CC12OC(=O)CC3C(C)(C)[C@H](O)C=C[C@]3(C)C1CC[C@]1(C)C2=CC(=O)O[C@H]1c1ccoc1` (stereo not given in full), the Kd was > 4 mM (inactive).

Regarding `O=C(Nc1cccnc1)c1cnn2cccnc12`, the Kd is > 4 mM (inactive).

On to `NCc1cccc2c1OCCO2`, for which the Kd was > 4 mM (inactive).

Regarding `NC(=O)c1cc2c(n(-c3ccccc3)c1=O)CCCC2=O`, the Kd was > 4 mM (inactive).

On to `CC(=O)Nc1ccc(N2C(=O)C=CC2=O)cc1C`, for which the Kd was > 4 mM (inactive).

Consider `Cc1nn2c(=O)c(NC(=O)c3ccccc3)cnc2s1`, for which the Kd was > 4 mM (inactive).

For the compound `CC(CCC(=O)O)[C@H]1CCC2C3CC[C@@H]4C[C@H](O)CC[C@]4(C)C3CC[C@@]21C` (stereo not given in full), the Kd is > 4 mM (inactive).

On to `Cc1cccc(CSc2nncc(=O)[nH]2)c1`, for which the Kd is > 4 mM (inactive).

With `Nc1nnc(SCc2cccnc2)s1`, the Kd is > 4 mM (inactive).

`O=C(NCc1cccc(Cl)c1)c1cccnc1`: the Kd was > 4 mM (inactive).

With `COc1cc(C(=O)O[C@H]2CC[C@@]3(C)[C@@H]4CC[C@H]5[C@]6(O)C[C@H](O)[C@@]7(O)[C@@H](CN8C[C@@H](C)CC[C@H]8[C@@]7(C)O)[C@]6(O)C[C@@]53OC24O)cc(OC)c1OC`, the Kd is > 4 mM (inactive).

On to `Cc1ccc(S(=O)(=O)CC(=O)N2CCCC2)cc1`, for which the Kd is > 4 mM (inactive).

`CNC(=O)c1c(O)c2ccccc2[nH]c1=O`: the Kd is > 4 mM (inactive).

In the case of `CC1(C(=O)O)CC2C=CC1C2` (stereo not given), the Kd was > 4 mM (inactive).

With `O=C(O)CCCCCCCC(=O)O`, the Kd was > 4 mM (inactive).

`COc1ccc2c(c1)O[C@@H]1COc3cc(OC)c(OC)cc3[C@@H]1C2=O`: the Kd was > 4 mM (inactive).

For `O=C(CN1C(=O)CCC1=O)c1ccccc1`, the Kd is > 4 mM (inactive).

With `Cc1cc(=O)n(C(N)=S)[nH]1`, the Kd was > 4 mM (inactive).

For `O=C(NCc1cccs1)c1nn2cccnc2c1Cl`, the Kd is > 4 mM (inactive).

`O=C1CC2OCC=C3CN4CC[C@]56c7ccccc7N1C5[C@H]2[C@H]3CC46` (stereo not given in full): the Kd is > 4 mM (inactive).

With `C=C(C)[C@@H]1[C@H]2OC(=O)[C@@H]1[C@]1(O)C[C@H]3O[C@]34C(=O)O[C@H]2[C@]14C`, the Kd was > 4 mM (inactive).

Consider `Nc1ccc(S(=O)(=O)Nc2nccs2)cc1`, for which the Kd is > 4 mM (inactive).

For `CC(=O)/C=C\[C@@H]1[C@@]2(C)CCCC(C)(C)C2CC[C@@]1(C)O` (stereo not given in full), the Kd is > 4 mM (inactive).

As for `Cc1nc2ccccc2c(=O)n1/N=C/c1ccco1`, the Kd is > 4 mM (inactive).

Turning to `CC(C)CCCC(C)[C@H]1CCC2C3CC=C4CC(=O)CC[C@]4(C)C3CC[C@@]21C` (stereo not given in full), the Kd was > 4 mM (inactive).

`O=C(O)/C=C/c1ccc(O)c(O)c1`: the Kd was > 4 mM (inactive).

With `COCC(=O)Nc1cccc2ccccc12`, the Kd is > 4 mM (inactive).

As to `CC(=O)Nc1ccccc1OCC(N)=O`, the Kd is > 4 mM (inactive).

Consider `c1ccc(Cc2nnc3sc(-c4ccncc4)nn23)cc1`, for which the Kd was > 4 mM (inactive).

With `COc1cc(O)ccc1C(C)=O`, the Kd is > 4 mM (inactive).

As for `CC(=O)c1c(O)cc(O)cc1O`, the Kd is > 4 mM (inactive).

`O=C(c1cc(Cl)cc(Cl)c1)N1CCOCC1`: the Kd was > 4 mM (inactive).

On to `O=C(Nc1ccccc1CO)c1ccccc1F`, for which the Kd is > 4 mM (inactive).

Take `CN(C)c1ccc(N2C(=O)CCC2=O)cc1`: the Kd is > 4 mM (inactive).

As to `O=C1CSC(=Nc2ccc(F)cc2)N1`, the Kd is > 4 mM (inactive).

On to `CC(=O)Nc1ccc(N(C)C(C)=O)cc1`, for which the Kd was > 4 mM (inactive).

Regarding `Cc1ncc(CC(=O)O)s1`, the Kd was > 4 mM (inactive).

As to `CC(=O)Nc1cc(C(F)(F)F)ccc1N1CCOCC1`, the Kd is > 4 mM (inactive).

`O=c1[nH]cnc2nn(-c3ccccc3)nc12`: the Kd was > 4 mM (inactive).

Take `CC(=O)Nc1nc(-c2cccs2)cs1`: the Kd is > 4 mM (inactive).

As for `CC1(C)Cc2nc3[nH]c(=S)[nH]c(=O)c3cc2CO1`, the Kd was > 4 mM (inactive).

For `CC(=O)c1ccc(NS(=O)(=O)c2cccc(C)c2)cc1`, the Kd was > 4 mM (inactive).

Turning to `COc1ccc(NC(=O)c2ccc[n+]([O-])c2)cc1`, the Kd is > 4 mM (inactive).

Regarding `COc1ccc2c(c1)OC/C(=C\c1ccc(OC)c(O)c1)C2=O`, the Kd is > 4 mM (inactive).

Take `O=c1c2ccccc2nc2n1CCS2`: the Kd is > 4 mM (inactive).

Turning to `CN1C(CC(=O)c2ccccc2)CCCC1CC(O)c1ccccc1` (stereo not given), the Kd is > 4 mM (inactive).

Take `O=c1c[n+]([O-])c2ccccc2n1OCc1ccccn1`: the Kd was > 4 mM (inactive).

In the case of `COc1c(O)cccc1O`, the Kd is > 4 mM (inactive).

Turning to `CCNC(=O)CC[C@H](N)C(=O)O`, the Kd is > 4 mM (inactive).

`CC1CC[C@@]2(OC1)O[C@H]1CC3C4CC[C@@H]5C[C@@H](O)CC[C@]5(C)C4CC[C@]3(C)[C@H]1[C@@H]2C` (stereo not given in full): the Kd is > 4 mM (inactive).

For `O=C1NC(=Nc2ccccc2)S/C1=C/c1cccnc1`, the Kd is > 4 mM (inactive).

Regarding `c1coc(-c2nc(-c3ccncc3)no2)c1`, the Kd is > 4 mM (inactive).

Regarding `CC1CC2(NC(=O)NC2=O)C(C)CN1C` (stereo not given), the Kd is > 4 mM (inactive).

Take `COc1cccc(C(=O)Nc2c(C)n[nH]c2C)c1`: the Kd is > 4 mM (inactive).

Take `CC(C)(C)NC(=O)CN1C(=O)c2ccccc2S1(=O)=O`: the Kd was > 4 mM (inactive).

As to `O=C(/C(=N\O)n1cncn1)c1ccccc1Cl`, the Kd was > 4 mM (inactive).

On to `O=C1NC(=Nc2ccccc2Cl)SC1(CO)CO`, for which the Kd was > 4 mM (inactive).

`Cc1sc2nc3n(c(=O)c2c1C)CCCS3`: the Kd is > 4 mM (inactive).

On to `CCCCCc1c2c(cc(O)c1C(=O)O)OC(=O)c1c(cc(OC)cc1C(=O)CCCC)O2`, for which the Kd is > 4 mM (inactive).

Regarding `O=C(O)C1CCN(c2ccc(C(F)(F)F)cn2)CC1`, the Kd is > 4 mM (inactive).

Consider `Cc1cc(C)n(-c2nncn2N)n1`, for which the Kd is > 4 mM (inactive).

Regarding `O=S1(=O)C=C(Nc2ccccc2)CC1`, the Kd is > 4 mM (inactive).

`O=C(O)c1cncc(-c2ccccc2)c1`: the Kd was > 4 mM (inactive).

With `CC(C)c1c(O)c(-c2cc3c(c(C(C)C)c2O)CCC2C(C)(C)CCC[C@]32C)cc2c1CCC1C(C)(C)CCC[C@]21C` (stereo not given in full), the Kd was > 4 mM (inactive).

As to `Cc1cc(C(=O)NCc2ccccc2Br)no1`, the Kd was > 4 mM (inactive).

For the compound `COc1ccc2c(c1OC)OC[C@@H](c1ccc(OC)c(OC)c1OC)C2`, the Kd was > 4 mM (inactive).

In the case of `CC1(C)Cc2nc3n[nH]c(N)c3cc2CO1`, the Kd was > 4 mM (inactive).
